Assay results as given in patent US20120039888A1, “Methods Of Inhibiting Inflammation-Associated Tissue Damage By Inhibiting Neutrophil Activity” (priority 2008, published 2012).

Experiments:
[1] = tested on: nRBC interactions with adherent leukocytes; test: nRBC-leukocyte interactions, brightfield intravital microscopy of TNF-α-inflamed cremasteric venules; type: in vivo, mouse (C57BL/6); settings: inhibitor given 120 min after TNF-α: PP2 150 μg/kg, SB203580 100 μg, piceatannol 1 mg; compared to vehicle control (DMSO); FIG. 2f
Procedure: Brightfield intravital microscopy. Brightfield intravital microscopy was performed as previously reported^21,22. For SCD mice, several postcapillary and collecting venules were recorded from 15 min after the surgical preparation (time=0 is surgical section of the cremaster) for 75 minutes (pre-TNF-α), with each venule recorded continuously for at least 2 min. SCD mice were then injected i.p. with 0.5 μg recombinant murine TNF-α (R & D Systems) and then the same venules were videotaped over a period of 90 min (91-180 min), after which venules were recorded again for another 90 min (181-270 min). The role of endothelial selectins was evaluated in identical experiments performed in Selp^−/− or Sele^−/− mice transplanted with BM cells from SCD donor mice, or using antibodies against P- or E-selectin (1 mg/kg) prior to surgery. […] In experiments with non-SCD C57BL/6 mice, TNF-α was administered intrascrotally and images recorded 160-210 min after cytokine injection. […]
Hemodynamic measurements and image analyses for brightfield intravital microscopy. The venular diameter was measured using a video caliper. Centerline RBC velocity was measured for each venule in real time using an optical Doppler velocimeter (Texas A&M, College Station, Tex.). […] Blood flow rate was calculated from the formula: Vmean×π×d^2/4. […]

[2] = tested on: ROS-producing adherent leukocytes; test: In vivo detection of ROS-producing adherent leukocytes (dihydroxyrhodamine-123, MFIM); design: species or system mouse (Balb/c); settings: TNF-α-treated mice; pre-treatment with anti-E-selectin 1 mg/kg or n-acetyl cysteine 150 mg/kg
Procedure: In vivo detection of leukocytes producing reactive oxygen species (ROS). Balb/c mice prepared for MFIM were injected i.v. with 29 nmoles of dihydroxyrhodamine-123 (DHR; Molecular Probes, Eugene, Oreg.). DHR uptaken by leukocytes actively producing ROS converts into fluorescent rhodamine-123 (507/529 nm) which can be detected by a bright punctuated pattern in the FITC channel (FIG. 11). In some experiments, mice were pre-treated with 25 μL rabbit anti-platelet serum to deplete platelets, 1 mg/kg of anti-E-selectin antibody, or 150 mg/kg of n-acetyl cysteine. Images were captured in the brightfield and FITC channels before and after injection of 3.5 mg/kg anti-H2d antibody, and the frequency of ROS-producing cells calculated out of all adherent leukocytes in each venular segment.

Balb/c mice [3] = test: Antibody-induced acute lung injury (TRALI model), protein content in BAL fluids; type: in vivo, mouse (Balb/c); settings: antibodies 1 mg/kg i.v. or n-acetyl cysteine 150 mg/kg i.v. 5 min before anti-H2d 3.5 mg/kg; BAL 2 h later
Procedure: Antibody-induced acute lung injury. Balb/c male mice (8-12 week-old) were injected i.v. with 3.5 mg/kg of anti-H2d (clone 34-1-2s) or control H2b (clone 28-8-6s) antibodies. After 2 h, BAL was performed on anesthetized mice by 3 washes with 1 ml PBS each using a 18G needle, and the protein content assessed by the bicinchoninic acid method (BCA; Pierce, Rockford, Ill.). In some experiments, mice were pre-treated as follows: rabbit anti-platelet serum (25 μl; i.p. injection; Accurate Chemicals; Westbury, N.Y.) diluted in 200 μl of PBS, 2 h prior anti-H2d treatment; 1 mg/kg i.v. injection of control or anti-P-selectin, E-selectin or anti-αMβ2 antibodies 5 min before anti-H2d; 150 mg/kg i.v. injection of n-acetyl cysteine 5 min before anti-H2d . Platelet and leukocyte counts from blood samples obtained at the end of the experiment were determined using a hematological Coulter® AC-T diff™ l Analyzer (Beckman Coulter, Miami, Fla.). None of these treatments affected circulating leukocyte counts (not shown). In the TRALI experiments involving intravital imaging of the cremasteric microcirculation, TNF-α was injected intrascrotally to allow the recruitment and imaging of inflammatory leukocytes.

Balb/c mice [4] = test: Vascular permeability, FITC-dextran extravasation in cremasteric venules after anti-H2d; type: in vivo, mouse (Balb/c); settings: TNF-α-treated mice, pre-treatment with antibodies 1 mg/kg or n-acetyl cysteine 150 mg/kg, imaged 30 min later
Procedure: Vascular permeability. To analyze anti-MHC-I-induced vascular damage, Balb/c mice were intravenously infused with 3.5 mg/kg of anti-MHC-I antibodies (to H2d or control H2b) and 1 mg of FITC-Dextran (70 Kd; Sigma-Aldrich) 210 min after TNF-α-treatment.
In some experiments, mice were pre-treated with 25 μL rabbit anti-platelet serum to deplete platelets, 1 mg/kg of control, anti-E-selectin or anti-αMβ2 antibodies, or 150 mg/kg of n-acetyl cysteine. Random fields containing small venules were imaged 30 min later using the FITC channel under a LumPlanFl 10× objective, NA 0.30 w. Images were masked over a threshold to quantify all FITC-Dextran-associated fluorescence intensity as well as the signal corresponding only to intravascular spaces. The percentage of extravasated FITC-Dextran was finally obtained using the formula: [(Total intensity−Intravascular intensity)/Total intensity]×100.

Row | Structure (SMILES) | nRBC (normal red blood cell) interactions with leukocytes [1] | ROS-producing adherent leukocytes after anti-H2d [2] | lung injury induced by anti-H2d (protein content in BAL fluids) (Balb/c mice [3]) | vascular permeability (FITC-dextran extravasation) after anti-H2d (Balb/c mice [4]) | vascular permeability (FITC-dextran extravasation) after anti-H2d (Balb/c mice [4]; listed as N-acetyl-cysteine)
1 | CC(C)(C)n1nc(-c2ccc(Cl)cc2)c2c(N)ncnc21 [PP2, 4-amino-5-(4-chlorophenyl)-7-(t-butyl)pyrazolo[3,4-d]pyramidine] | Inhibition of nRBC (normal red blood cell) interactions | – | – | – | –
2 | CC(=O)N[C@@H](CS)C(=O)O [n-acetyl-cysteine] | – | prevents ROS generation | completely prevented lung injury | completely prevented | prevents
